In the NIST ThermoML archive (doi:10.1021/je400157s):

Key:
[1] = molar heat capacity at constant pressure; settings: 101.33 kPa, Liquid, Small sample (50 mg) DSC
[2] = Liquid; for mass density: 101.33 kPa, Vibrating tube method; for speed of sound: Pulse-echo method

CCCCCCCCCC(=O)OCC [ethyl decanoate]
Settings | mass density, [2] [kg/m3] | molar heat capacity at constant pressure, [1] [J/K/mol]
283.15 K | 872.11 | –
286.16 K | – | 397.73
288.15 K | 868.06 | 398.53
293.15 K | 864 | 400.88
298.15 K | 859.94 | 403.34
303.15 K | 855.88 | –
303.16 K | – | 405.67
308.14 K | 851.82 | –
308.16 K | – | 408.17
313.14 K | 847.75 | –
313.16 K | – | 410.93
318.15 K | 843.68 | 413.64
323.15 K | 839.6 | 416.52
328.15 K | 835.52 | –
328.16 K | – | 419.55
333.14 K | – | 422.31
333.15 K | 831.43 | –
338.14 K | 827.33 | –
338.15 K | – | 425.46
341.11 K | – | 427.36
343.15 K | 823.23 | –
348.15 K | 819.11 | –
353.14 K | 814.99 | –

[2]
Settings | speed of sound [m/s]
292.9 K, 30390 kPa | 1453.5
292.9 K, 45590 kPa | 1511.7
292.9 K, 60790 kPa | 1565.9
292.9 K, 75990 kPa | 1616.7
292.9 K, 101320 kPa | 1693.9
292.91 K, 15200 kPa | 1389.4
292.91 K, 91180 kPa | 1664.3
292.92 K, 100 kPa | 1313.8
298.17 K, 30390 kPa | 1436.1
298.17 K, 45590 kPa | 1494.9
298.17 K, 60790 kPa | 1549.4
298.17 K, 75990 kPa | 1601.3
298.17 K, 91180 kPa | 1648.6
298.17 K, 101320 kPa | 1678.8
298.18 K, 100 kPa | 1293.9
298.18 K, 15200 kPa | 1370.6
303.16 K, 100 kPa | 1275.2
303.16 K, 30390 kPa | 1419.1
303.16 K, 45590 kPa | 1479.6
303.16 K, 60790 kPa | 1534.7
303.16 K, 75990 kPa | 1586.9
303.16 K, 91180 kPa | 1635
303.16 K, 101320 kPa | 1665.9
303.17 K, 15200 kPa | 1353.1
308.13 K, 45590 kPa | 1464.6
308.13 K, 75990 kPa | 1572.1
308.13 K, 101320 kPa | 1652.9
308.14 K, 100 kPa | 1256.8
308.14 K, 15200 kPa | 1335.4
308.14 K, 30390 kPa | 1403
308.14 K, 60790 kPa | 1520.1
308.14 K, 91180 kPa | 1621.8
313.09 K, 45590 kPa | 1449.8
313.09 K, 75990 kPa | 1559.2
313.09 K, 91180 kPa | 1608.6
313.09 K, 101320 kPa | 1639
313.1 K, 30390 kPa | 1387.5
313.1 K, 60790 kPa | 1506.2
313.11 K, 100 kPa | 1238.5
313.11 K, 15200 kPa | 1318.7
318.26 K, 75990 kPa | 1544.9
318.26 K, 91180 kPa | 1594.7
318.26 K, 101320 kPa | 1626.5
318.27 K, 15200 kPa | 1301.6
318.27 K, 30390 kPa | 1371.7
318.27 K, 45590 kPa | 1434.9
318.27 K, 60790 kPa | 1491.6
318.28 K, 100 kPa | 1219.7

CCCCCCCC(=O)OCC [ethyl octanoate]
Settings | mass density, [2] [kg/m3] | molar heat capacity at constant pressure, [1] [J/K/mol]
278.15 K | 879.5 | –
283.15 K | 875.22 | –
285.01 K | – | 338
288.15 K | 870.94 | –
288.16 K | – | 339.38
293.15 K | 866.65 | 341.09
298.15 K | 862.36 | 343.12
303.15 K | 858.07 | –
303.16 K | – | 345.31
308.15 K | 853.76 | 347.48
313.15 K | 849.46 | 349.66
318.15 K | 845.14 | –
318.16 K | – | 351.96
323.15 K | 840.81 | 354.35
328.14 K | – | 356.9
328.15 K | 836.47 | –
333.15 K | 832.12 | 358.95
338.15 K | 827.76 | 361.55
343.15 K | 823.39 | –
343.16 K | – | 363.7
343.78 K | – | 364.29
348.15 K | 819 | –
353.15 K | 814.59 | –
358.15 K | 810.17 | –

[2]
Settings | speed of sound [m/s]
292.9 K, 101320 kPa | 1668.8
292.91 K, 45590 kPa | 1484.7
292.91 K, 60790 kPa | 1539.2
292.91 K, 75990 kPa | 1590
292.91 K, 91180 kPa | 1638.3
292.92 K, 15200 kPa | 1359
292.92 K, 30390 kPa | 1426.7
292.94 K, 100 kPa | 1281.8
298.2 K, 45590 kPa | 1468.7
298.2 K, 60790 kPa | 1523.7
298.2 K, 75990 kPa | 1575
298.2 K, 91180 kPa | 1623.9
298.21 K, 30390 kPa | 1407.9
298.21 K, 101320 kPa | 1654.1
298.22 K, 100 kPa | 1261.5
298.22 K, 15200 kPa | 1340.8
303.13 K, 45590 kPa | 1453.6
303.13 K, 60790 kPa | 1509.1
303.13 K, 75990 kPa | 1561.4
303.13 K, 91180 kPa | 1610.1
303.13 K, 101320 kPa | 1639.9
303.14 K, 15200 kPa | 1324.2
303.14 K, 30390 kPa | 1391.8
303.2 K, 100 kPa | 1242.5
308.11 K, 15200 kPa | 1307.5
308.11 K, 30390 kPa | 1376.3
308.11 K, 45590 kPa | 1438.7
308.11 K, 60790 kPa | 1494.9
308.11 K, 75990 kPa | 1547.2
308.11 K, 91180 kPa | 1596.5
308.11 K, 101320 kPa | 1627.7
308.17 K, 100 kPa | 1223.6
313.09 K, 60800 kPa | 1480.5
313.09 K, 91180 kPa | 1582.8
313.1 K, 75990 kPa | 1533
313.1 K, 101320 kPa | 1614.8
313.11 K, 15200 kPa | 1290.2
313.11 K, 30390 kPa | 1360.2
313.11 K, 45590 kPa | 1423.1
313.15 K, 100 kPa | 1205
318.24 K, 30390 kPa | 1343.9
318.26 K, 15200 kPa | 1273
318.26 K, 45590 kPa | 1407.4
318.26 K, 60800 kPa | 1466
318.26 K, 75990 kPa | 1519.4
318.26 K, 91180 kPa | 1569.6
318.27 K, 101320 kPa | 1601.6
318.32 K, 100 kPa | 1185.7
